Values of other authors in patent US11938119B2, “Cannabis production systems and methods” ([…], LLC, priority 2017, dated 2024).

Settings: stated "in embodiments"; no solvent system or method printed

SMILES | partition coefficient
C=C(C)[C@@H]1CCC(C)=C[C@H]1c1c(O)cc(CCCCC)cc1O [cannabidiol] | 5.79
CCCCCc1cc(O)c2c(c1)OC(C)(C)[C@@H]1CCC(C)=C[C@@H]21 [tetrahydrocannabinol] | 6.99
